Assay results taken from patent US9034825B2, “Treatment of myocardial injury with humanin analogs” (Albert Einstein College of Medicine of Yeshiva University, priority 2007, dated 2015).

Test system: Sprague-Dawley rats
Test: ICV infusion of humanin or F6A HN with basal and hyperinsulinemic clamp (Example 2)
Type: in vivo, rat
Description: Young (3 mo old, n=6 in each group), male Sprague-Dawley rats (Charles River Laboratories, Wilmington, Mass.) were used for this study. Rats were housed in individual cages and were subjected to a standard light (6:00 AM to 6:00 PM)—dark (6:00 PM to 6:00 AM) cycle. All rats were fed ad libitum using regular rat chow that consisted of 64% carbohydrate, 30% protein, and 6% fat with a physiological fuel value of 3.3-kcal/g chow. 2 to 4 weeks before the in vivo study, the rats were anesthetized by inhalation of isoflurane and ICV cannula was placed in the third ventricle for infusions of humanin, humanin analog F6A HN or artificial CSF (aCSF), as previously described (Muzumdar et al., 2003) (FIG. 6). Briefly, a 26-gauge stainless steel guide cannula (Plastics One, Roanoke, Va.) was chronically implanted into the third ventricles using the following coordinates from bregma: anterior-posterior; +0.2 mm dorsal-ventral; −9.0 mm medial-lateral; 0.0 directly on the mid-sagittal suture, followed by a 28-gauge dummy cannula, inserted to prevent clogging of the guide cannula. The implant was secured to the skull with Caulk Grip dental cement, and the skin was closed over the implant using wound clips. The recovery of rats from the surgical stress was monitored with daily weight, food intake, and movement.
Upon recovery of body weight, usually a week, indwelling catheters were placed in the right internal jugular vein and in the left carotid artery (Muzumdar et al., 2003). The venous catheter was extended to the level of the right atrium, and the arterial catheter was advanced to the level of the aortic arch. Recovery was continued until body weight was within 3% of the pre-operative weight (˜4-6 days). In the rats that received peripheral humanin, only the vascular catheters were placed.
Studies were performed in unrestrained rats using the insulin clamp technique, in combination with high performance liquid chromatography-purified [3-^3H]glucose, as described previously (Liu et al., 1998). Food was removed for ˜5 h before the in vivo protocol. All studies lasted 360 min and included a 120-min equilibration period, a 120-min basal period for assessment of the basal glucose turnover, and a 120-min hyperinsulinemic clamp period. All rats received ICV infusions (bolus followed by continuous ICV infusions of humanin, F6A HN or aCSF, depending on the group) over the entire 6 hours of the study. At the beginning of the basal period and 120 min before starting the glucose/insulin infusions, a primed-continuous infusion of high performance liquid chromatography-purified [3-^3H]glucose (NEN Life Science Products, Boston, Mass.; 20 μCi of bolus, 0.2 μCi/min) was initiated and maintained throughout the remaining 4 h of the study. In the final 2 hours of the study, the rats were subjected to hyperinsulinemic clamp. The protocol followed during the insulin clamp study was similar to that previously described (Liu et al., 1998). Briefly, a primed-continuous infusion of regular insulin (3 milliunits/kg-min) was administered, and a variable infusion of a 25% glucose solution was started and periodically adjusted to clamp the plasma glucose concentration at 7-8 mM. To prevent endogenous insulin secretion and in order to control for possible effects of ICV infusions on the endocrine pancreas, somatostatin (1.5 μg/kg-min) was also infused in all the groups.
A bolus of humanin (6 μg) was followed by a continuous infusion over 6 hours (total dose of 18 μg, 0.1 μg/kg/min).
F6A HN has one amino acid substitution (F6A-phenylalanine to alanine on position 6) and has been characterized. A bolus of F6 A HN ([…]) was followed by a continuous infusion over 6 hours (total 18 μg, 0.1 μg/kg/min).
Plasma glucose (sample volume 10 μl) was measured by the glucose oxidase method (Glucose Analyzer II, Beckman Instruments, Palo Alto, Calif.). […]

[1] = ICV 18 μg over 6 h, basal period
[2] = ICV 18 μg over 6 h, hyperinsulinemic clamp

CC[C@H](C)[C@H](NC(=O)[C@H](CCC(=O)O)NC(=O)[C@H](CO)NC(=O)[C@@H](NC(=O)[C@H](CC(C)C)NC(=O)[C@H](CC(C)C)NC(=O)[C@H](CC(C)C)NC(=O)[C@H](CC(C)C)NC(=O)[C@H](CS)NC(=O)[C@H](CO)NC(=O)[C@H](Cc1ccccc1)NC(=O)CNC(=O)[C@H](CCCNC(=N)N)NC(=O)[C@@H]1CCCN1C(=O)[C@H](C)NC(=O)[C@@H](N)CCSC)[C@@H](C)O)C(=O)N[C@@H](CC(=O)O)C(=O)N[C@@H](CC(C)C)C(=O)N1CCC[C@H]1C(=O)N[C@H](C(=O)N[C@@H](CCCCN)C(=O)N[C@@H](CCCNC(=N)N)C(=O)N[C@@H](CCCNC(=N)N)C(=O)N[C@@H](C)C(=O)O)C(C)C [Humanin, maprgfscll lltseidlpv krra]
Glycogen synthesis, Basal [1]: 4.89 ± 0.61 | Glycolysis, Basal [1]: 7.99 ± 0.73 mg/kg/min | HGP, Basal [1]: 12.87 ± 1.6 mg/kg/min | FFA [2]: 0.33 ± 0.03 mEq/L | Glycogen synthesis, Clamp [2]: 9.75 ± 0.92 | Glycolysis, Clamp [2]: 15.1 ± 1.0 mg/kg/min | HGP, Clamp [2]: 2.27 ± 0.37 mg/kg/min | Rd, Clamp [2]: 24.9 ± 1.6 mg/kg/min | GIR, Clamp (ICV 18 μg over 6 h, hyperinsulinemic clamp 3 mU/kg/min): 22.8 ± 1.64 mg/kg/min | increase in peripheral glucose uptake (Rd) (ICV HN, hyperinsulinemic clamp): ~150% | more reduction in hepatic glucose production (HGP) (ICV HN, hyperinsulinemic clamp): ~50% | suppression of FFA compared to controls (ICV HN, hyperinsulinemic clamp): significantly higher | glucose infusion rate (GIR) relative to aCSF (ICV HN, hyperinsulinemic clamp 3 mU/kg/min): 165 % of aCSF | glucose infusion rate (GIR) during the hyperinsulinemic clamp (ICV HN, Example Summary, in mg/kg/min (unit assumed)): 25.2 ±2.6 | humanin in the rat periphery (after ICV infusion): No humanin was detected
